From ChEMBL document CHEMBL1201862, “PubChem BioAssay data set” (2004)
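Five compound concentrations were applied to cells in 96-well plates for 48 hours; endpoints were derived by simple linear interpolation of the resulting dose-response curve. GI50 = concentration required for 50% inhibition of growth.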 Calls of active or inactive are those of the source. Cut-off read from the data, not from the text of the source: active = GI50 up to about 1.1 µM and inactive = higher.

Columns and labels:
Experiment in all cases: inhibition of tumour cell growth, NCI panel, 48 h
ACHN = test system: ACHN
CCRF-CEM = test system: CCRF-CEM
IGROV-1 = test system: IGROV-1
Hs-578T = test system: Hs-578T
SK-MEL-2 = test system: SK-MEL-2
NCI-H23 = test system: NCI-H23
SNB-75 = test system: SNB-75
UACC-257 = test system: UACC-257
HCT-15 = test system: HCT-15
T47D = test system: T47D
LOX IMVI = test system: LOX IMVI
MDA-N = test system: MDA-N
SK-MEL-5 = test system: SK-MEL-5
MDA-MB-435 = test system: MDA-MB-435
RPMI-8226 = test system: RPMI-8226
SW-620 = test system: SW-620
SK-OV-3 = test system: SK-OV-3
A498 = test system: A498
SF-268 = test system: SF-268
SF-295 = test system: SF-295
CAKI-1 = test system: CAKI-1
SF-539 = test system: SF-539
SR = test system: SR
RXF 393 = test system: RXF 393
U-251 = test system: U-251
MCF7 = test system: MCF7
HCC 2998 = test system: HCC 2998
SK-MEL-28 = test system: SK-MEL-28
NCI-H460 = test system: NCI-H460
MDA-MB-231 = test system: MDA-MB-231
M14 = test system: M14
COLO 205 = test system: COLO 205
KM12 = test system: KM12
UO-31 = test system: UO-31
NCI/ADR-RES = test system: NCI/ADR-RES
NCI-H522 = test system: NCI-H522
HOP-92 = test system: HOP-92
OVCAR-5 = test system: OVCAR-5
HT-29 = test system: HT-29
TK-10 = test system: TK-10
OVCAR-4 = test system: OVCAR-4
MOLT-4 = test system: MOLT-4
SNB-19 = test system: SNB-19
PC-3 = test system: PC-3
OVCAR-8 = test system: OVCAR-8
Malme-3M = test system: Malme-3M
786-0 = test system: 786-0
A549 = test system: A549
EKVX = test system: EKVX
HL-60 = test system: HL-60
HOP-62 = test system: HOP-62
HCT-116 = test system: HCT-116
UACC-62 = test system: UACC-62
DU-145 = test system: DU-145
K562 = test system: K562
SN12C = test system: SN12C
NCI-H226 = test system: NCI-H226
OVCAR-3 = test system: OVCAR-3

`C[C@]1(O)CC[C@H]2[C@@H]3CCc4cc(O)ccc4[C@H]3CC[C@@]21C` was tested, and the GI50 (ACHN) was 16.6 µM (inactive), the GI50 (CCRF-CEM) was 2.37 µM (inactive) and the GI50 (IGROV-1) was 0.735 µM (active). The GI50 (Hs-578T) was 1.19 µM (inactive), the GI50 (SK-MEL-2) was 0.773 µM (active) and the GI50 (NCI-H23) was 3.03 µM (inactive). For the same compound, the GI50 (SNB-75) was > 100 µM (inactive), the GI50 (UACC-257) was 28.2 µM (inactive) and the GI50 (HCT-15) was 1.15 µM. The GI50 (T47D) was 38.5 µM (inactive), the GI50 (LOX IMVI) was 14.5 µM (inactive) and the GI50 (MDA-N) was 0.186 µM (active). For the same compound, the GI50 (SK-MEL-5) was 0.391 µM (active), the GI50 (MDA-MB-435) was 0.186 µM (active) and the GI50 (RPMI-8226) was 0.687 µM (active). The GI50 (SW-620) was 0.568 µM (active), the GI50 (SK-OV-3) was 89.5 µM (inactive) and the GI50 (A498) was 0.456 µM (active). For the same compound, the GI50 (SF-268) was 3.46 µM (inactive), the GI50 (SF-295) was 1.48 µM (inactive) and the GI50 (CAKI-1) was 3.62 µM (inactive). The GI50 (SF-539) was 0.356 µM (active), the GI50 (SR) was 0.21 µM (active) and the GI50 (RXF 393) was 0.889 µM (active). The GI50 (U-251) was 4.03 µM (inactive), the GI50 (MCF7) was 0.665 µM (active) and the GI50 (HCC 2998) was 0.233 µM (active). For the same compound, the GI50 (SK-MEL-28) was 34.8 µM (inactive), the GI50 (NCI-H460) was 1.36 µM (inactive) and the GI50 (MDA-MB-231) was 7.23 µM (inactive). The GI50 (M14) was 1.18 µM (inactive), the GI50 (COLO 205) was 7.35 µM (inactive) and the GI50 (KM12) was 0.308 µM (active). The GI50 (UO-31) was 8.32 µM (inactive), the GI50 (NCI/ADR-RES) was 1.99 µM (inactive) and the GI50 (NCI-H522) was 0.991 µM (active). The GI50 (HOP-92) was 6.95 µM (inactive), the GI50 (OVCAR-5) was 8.02 µM (inactive) and the GI50 (HT-29) was 6.7 µM (inactive). For the same compound, the GI50 (TK-10) was 0.826 µM (active), the GI50 (OVCAR-4) was > 100 µM (inactive) and the GI50 (MOLT-4) was 0.664 µM (active). The GI50 (SNB-19) was 92.3 µM (inactive), the GI50 (PC-3) was 1.87 µM (inactive) and the GI50 (OVCAR-8) was 7.48 µM (inactive). The GI50 (Malme-3M) was 0.353 µM (active), the GI50 (786-0) was 6.38 µM (inactive) and the GI50 (A549) was 3.94 µM (inactive). The GI50 (EKVX) was 1.32 µM (inactive) and the GI50 (HL-60) was 0.362 µM (active).

For `COc1cc(/C=c2\sc3n(c2=O)C(c2ccc(Cl)cc2)C2=C(CCCC2C)N=3)cc(OC)c1OC` (configuration not stated), the GI50 (HOP-62) was > 100 µM (inactive), the GI50 (ACHN) was > 100 µM (inactive) and the GI50 (CCRF-CEM) was > 100 µM (inactive). The GI50 (IGROV-1) was > 100 µM (inactive), the GI50 (HCT-116) was > 100 µM (inactive) and the GI50 (Hs-578T) was > 100 µM (inactive). The GI50 (SK-MEL-2) was > 100 µM (inactive), the GI50 (SNB-75) was > 100 µM (inactive) and the GI50 (UACC-257) was > 100 µM (inactive). The GI50 (HCT-15) was greater than 100 µM, the GI50 (LOX IMVI) was > 100 µM (inactive) and the GI50 (MDA-N) was > 100 µM (inactive). The GI50 (SK-MEL-5) was 83 µM (inactive), the GI50 (MDA-MB-435) was > 100 µM (inactive) and the GI50 (RPMI-8226) was > 100 µM (inactive). For the same compound, the GI50 (SW-620) was > 100 µM (inactive), the GI50 (SK-OV-3) was > 100 µM (inactive) and the GI50 (A498) was > 100 µM (inactive). For the same compound, the GI50 (SF-268) was > 100 µM (inactive), the GI50 (CAKI-1) was > 100 µM (inactive) and the GI50 (SR) was > 100 µM (inactive). For the same compound, the GI50 (RXF 393) was > 100 µM (inactive), the GI50 (UACC-62) was > 100 µM (inactive) and the GI50 (U-251) was > 100 µM (inactive). The GI50 (MCF7) was > 100 µM (inactive), the GI50 (SK-MEL-28) was > 100 µM (inactive) and the GI50 (MDA-MB-231) was 25.9 µM (inactive). The GI50 (M14) was > 100 µM (inactive), the GI50 (DU-145) was > 100 µM (inactive) and the GI50 (KM12) was > 100 µM (inactive). For the same compound, the GI50 (UO-31) was > 100 µM (inactive), the GI50 (K562) was > 100 µM (inactive) and the GI50 (HOP-92) was > 100 µM (inactive). For the same compound, the GI50 (OVCAR-5) was > 100 µM (inactive), the GI50 (HT-29) was > 100 µM (inactive) and the GI50 (TK-10) was > 100 µM (inactive). For the same compound, the GI50 (MOLT-4) was > 100 µM (inactive), the GI50 (SNB-19) was > 100 µM (inactive) and the GI50 (PC-3) was > 100 µM (inactive). For the same compound, the GI50 (OVCAR-8) was > 100 µM (inactive), the GI50 (786-0) was > 100 µM (inactive) and the GI50 (SN12C) was > 100 µM (inactive). For the same compound, the GI50 (A549) was > 100 µM (inactive), the GI50 (EKVX) was > 100 µM (inactive) and the GI50 (HL-60) was > 100 µM (inactive).

In the case of `COc1nn(Cc2ccccc2F)c2ccc([N+](=O)[O-])cc12`, the GI50 (HOP-62) is reported as 18.9 µM (inactive), the GI50 (ACHN) is reported as > 100 µM (inactive) and the GI50 (CCRF-CEM) is reported as > 100 µM (inactive). The GI50 (IGROV-1) was > 100 µM (inactive), the GI50 (HCT-116) was > 100 µM (inactive) and the GI50 (Hs-578T) was > 45.9 µM (inactive). For the same compound, the GI50 (SK-MEL-2) was 98.9 µM (inactive), the GI50 (NCI-H23) was > 100 µM (inactive) and the GI50 (SNB-75) was > 100 µM (inactive). The GI50 (UACC-257) was > 50.6 µM (inactive), the GI50 (HCT-15) was greater than 100 µM and the GI50 (T47D) was > 100 µM (inactive). The GI50 (LOX IMVI) was > 100 µM (inactive), the GI50 (MDA-N) was 3.4 µM (inactive) and the GI50 (SK-MEL-5) was > 100 µM (inactive). For the same compound, the GI50 (MDA-MB-435) was 2.74 µM (inactive), the GI50 (SW-620) was > 100 µM (inactive) and the GI50 (SF-268) was > 100 µM (inactive). For the same compound, the GI50 (CAKI-1) was > 100 µM (inactive), the GI50 (SF-539) was 41.1 µM (inactive) and the GI50 (NCI-H226) was > 100 µM (inactive). For the same compound, the GI50 (SR) was > 100 µM (inactive), the GI50 (RXF 393) was 7.48 µM (inactive) and the GI50 (U-251) was > 100 µM (inactive). The GI50 (MCF7) was > 100 µM (inactive), the GI50 (HCC 2998) was > 100 µM (inactive) and the GI50 (SK-MEL-28) was > 100 µM (inactive). For the same compound, the GI50 (NCI-H460) was > 100 µM (inactive), the GI50 (MDA-MB-231) was 12.1 µM (inactive) and the GI50 (M14) was > 100 µM (inactive). For the same compound, the GI50 (OVCAR-3) was > 100 µM (inactive), the GI50 (COLO 205) was > 100 µM (inactive) and the GI50 (DU-145) was > 100 µM (inactive). The GI50 (KM12) was > 100 µM (inactive), the GI50 (UO-31) was > 100 µM (inactive) and the GI50 (NCI/ADR-RES) was > 100 µM (inactive). The GI50 (NCI-H522) was > 30 µM (inactive), the GI50 (K562) was 2.91 µM (inactive) and the GI50 (HOP-92) was 90.6 µM (inactive). The GI50 (OVCAR-5) was > 100 µM (inactive), the GI50 (HT-29) was > 100 µM (inactive) and the GI50 (TK-10) was > 100 µM (inactive). The GI50 (OVCAR-4) was > 100 µM (inactive), the GI50 (MOLT-4) was > 20 µM (inactive) and the GI50 (SNB-19) was > 100 µM (inactive). For the same compound, the GI50 (OVCAR-8) was > 100 µM (inactive), the GI50 (Malme-3M) was > 85.3 µM (inactive) and the GI50 (786-0) was > 100 µM (inactive). For the same compound, the GI50 (SN12C) was > 100 µM (inactive), the GI50 (A549) was > 100 µM (inactive) and the GI50 (EKVX) was > 100 µM (inactive). For the same compound, the GI50 (HL-60) was 4.28 µM (inactive).
